Measurements: US20260159536A1, “AKR1C3-ACTIVATED DNA ALKYLATING AGENT, AND MEDICAL APPLICATION THEREOF” (ASCENTAWITS PHARMACEUTICALS, LTD., priority 2021, published 2026)
Like-named read-outs stand apart in the source and are kept apart here.

Experiments:
H460 cells = test: Inhibition of H460 cancer cell proliferation (CTG, 72 h); type: cell-based; details: Homo sapiens, NCI-H460
Method: (§1) If not otherwise specified, IC50 values were measured by the following experimental methods:
c) The cell suspension was added to 96-well plate with 100 μL per well and 2000 cells/well of cell density.
(§2) a) Cells were plated for 24 hours, and then the compounds acted singly. 99 μL of growth medium was supplemented per well, and then 1 μL of 200× compound was added, gently shaken to ensure uniform mixing, and then placed in a 37° C., 5% CO2 incubator.
(§3) b) The cell plate was placed in the incubator for 72 hours.
(§4) b) 100 μL of CTG reagent (CelltiterGlo kit) was added to each well, the plate was placed in a rapid oscillator and shaken for 2 minutes, and then placed at room temperature for 30 minutes away from light.
c) The chemiluminescence signal value was read with Envision instrument.
(§5) The IC50 was calculated using GraphPad Prism 8 software and the IC50 (half inhibitory concentration) of the compounds was obtained using the following non-linear fitting formula: […]

SNU354 = test: Cytotoxicity on hepatocellular carcinoma cell line SNU354; type: cell-based; details: for IC50: Homo sapiens, SNU-354
Method: as §1, §2, §3, §4, §5
(§6) Using the same experimental methods as described above, Compounds A, B and C were further tested for cytotoxicity against different hepatocellular carcinoma (HCC) cell lines SNU354, SNU886, MHCC97H and huH-1, and the results were shown in Table 2 below: […]

SNU886 = test: Cytotoxicity on hepatocellular carcinoma cell line SNU886; type: cell-based; details: for IC50: SNU-886
Method: as §1, §2, §3, §4, §5, §6

MHCC97H = test: Cytotoxicity on hepatocellular carcinoma cell line MHCC97H; type: cell-based; details: for IC50: Homo sapiens
Method: as §1, §2, §3, §4, §5, §6

huH-1 = test: Cytotoxicity on hepatocellular carcinoma cell line huH-1; type: cell-based; details: for IC50: Homo sapiens, HuH-1
Method: as §1, §2, §3, §4, §5, §6

H460 cancer cells = test: H460 proliferation in the presence or absence of AKR1C3 inhibitor AST-3021 (Alamar Blue); type: cell-based, human; details: for IC50: Homo sapiens, NCI-H460, H460, 2 hours exposure; for Fold: IC50 with AST-3021 over IC50 without
Method: The tested compound was then added. The compound was dissolved in 100% DMSO at 200 times of the desired final test concentration. When the medicament was added, the compound was further diluted to 4 times of the desired final test concentration by using the complete medium. 50 μL of aliquots of the compound with specific concentration were added to the microwells containing 150 μL of medium, and then the final medicament concentration was obtained. […] The medicament was then washed. […] After the incubation was finished, the Alamar Blue was used to analyze and quantify the living cells.

[1] = system: human lung cancer NCI-H460-Luc2 cells (intracranial); test: In vivo pharmacodynamics, NCI-H460-Luc2 intracranial inoculation CDX model; parameters: species or system BALB/c nude mice; details: 20 mg/kg, i.p. QWx3; Day 11
Method: The experiment was divided into groups of test drug Paclitaxel 20 mg/kg group, Compound A 2 mg/kg, 4 mg/kg and 8 mg/kg groups and 10% ethanol+10% polyoxyethylene castor oil+80% glucose injection DSW (pH 7.42) vehicle control group (Vehicle group), with 6 mice per group. […] The positive drug Paclitaxel 20 mg/kg group was administered by intraperitoneal injection and administered once a week for 3 weeks.
The pharmacodynamic analysis of each group in the human NCI-H460-luc intracranial inoculation model was performed based on the measured bioluminescence values on day 11 after administration, and the results were shown in Table 14.

[2] = system: HuPrime model LU2505 human lung cancer; test: In vivo pharmacodynamics, lung cancer LU2505 PDX model; parameters: species or system BALB/c nude mice; details: for Tumor volume: 20 mg/kg i.p.
[3] = system: HuPrime model LU0884 human lung cancer; test: In vivo pharmacodynamics, lung cancer LU0884 PDX model; parameters: species or system BALB/c nude mice; details: for Size of tumor volume: Group 2, Paclitaxel 20 mg/kg
[4] = Blood-brain barrier assay of Compound AST-2870 (plasma and brain concentration, PK); type: in vivo, CD-1 mice
Method: Three CD-1 mice were administered 10 mg/kg of test Compound AST-2870 by intraperitoneal injection at each time point. Blood and brain tissues were taken at 5 min, 15 min, 30 min, 1 h, 1.5 h, and 2 h after administration, and the concentration of the test substance in the samples was determined by LC/MS method. The corresponding results of the concentrations of Compound AST-2870 in blood and brain tissue versus time were made into a curve graph, as shown in FIG. 37. The corresponding test results of the ratio of the concentration of the Compound AST-2870 in brain tissue and blood versus time were made into a curve graph, as shown in FIG. 38.

[5] = no AKR1C3 inhibitor, read-out: IC50 Without the addition of AST-3021
[6] = 20 mg/kg i.p. every four days x4, Day 28
[7] = Paclitaxel 20 mg/kg, Q4Dx4, i.p., Day 28
[8] = brain tissues, 10 mg/kg intraperitoneal injection, Mean
[9] = plasma, 10 mg/kg intraperitoneal injection, Mean

Structure (SMILES): O=[N+]([O-])c1ccc([C@@H](OP(=O)(N2CC2)N2CC2)C(F)(F)F)cc1Oc1ccc(-c2ccc(F)cc2)c(F)c1 [C]
- IC50 (H460 cells): 23.4 nM
- IC50 (SNU354): 1520 nM
- ratio C/B (SNU354; IC50 ratio): 2.01
- ratio C/B (SNU886; IC50 ratio): 2.23
- IC50 (SNU886): 843 nM
- IC50 (MHCC97H): 563 nM
- ratio C/B (MHCC97H; IC50 ratio): 2.32
- IC50 (huH-1): 269 nM
- ratio C/B (huH-1; IC50 ratio, huH-1): 1.49
- IC50 (H460 cancer cells; AST-3021 3 micromolar, read-out: IC50 With the addition of AST-3021): 3330 nM
- IC50 (H460 cancer cells; [5]): 7.66 nM
- Fold (H460 cancer cells): 434.76

Structure (SMILES): CC(=O)O[C@H]1C(=O)[C@@]2(C)[C@H]([C@H](OC(=O)c3ccccc3)[C@]3(O)C[C@H](OC(=O)[C@H](O)[C@@H](NC(=O)c4ccccc4)c4ccccc4)C(C)=C1C3(C)C)[C@]1(OC(C)=O)CO[C@@H]1C[C@@H]2O [Paclitaxel, reference compound]
- Bioluminescence Value (Day 11) [1]: 4184.52 ± 1679.77 ×10^5 photon/second
- T/C (%) [1]: 130.82%
- TGI (%) [1]: −62.45%
- Relative tumor volume (x ± S) [2, 6]: 2.29 ± 1.37
- T/C (%) [2, 6]: 21.40%
- TGI (%) [2, 6]: 78.60%
- Tumor volume (x ± S) ([2]; 20 mg/kg i.p. every four days x4, Day 28, in mm³ (unit assumed)): 250.47 ± 157.81
- Tumor volume ([2]; Day 0): 103.12 mm^3
- Tumor volume ([2]; Day 4): 133.63 mm^3
- Tumor volume ([2]; Day 7): 133.14 mm^3
- Tumor volume ([2]; Day 11): 132.14 mm^3
- Tumor volume ([2]; Day 14): 164.42 mm^3
- Tumor volume ([2]; Day 18): 207.89 mm^3
- Tumor volume ([2]; Day 21): 238.63 mm^3
- Tumor volume ([2]; Day 25): 231.63 mm^3
- Tumor volume ([2]; Day 28): 250.47 mm^3
- Size of tumor volume ([3]; Day 0): 110.11 mm^3
- Size of tumor volume ([3]; Day 4): 157.57 mm^3
- Size of tumor volume ([3]; Day 7): 229.87 mm^3
- Size of tumor volume ([3]; Day 11): 250.46 mm^3
- Size of tumor volume ([3]; Day 14): 292.52 mm^3
- Size of tumor volume ([3]; Day 18): 381.53 mm^3
- Size of tumor volume ([3]; Day 21): 402.62 mm^3
- Size of tumor volume ([3]; Day 25): 492.50 mm^3
- Size of tumor volume ([3]; Day 28): 528.88 mm^3
- T/C (%) [3, 7]: 78.79%
- TGI (%) [3, 7]: 21.21%
- Relative tumor volume (x ± S) ([3]; Paclitaxel 20 mg/kg, Q4Dx4, i.p., Day 28, mean ± standard error): 4.72 ± 1.26
- Tumor volume (x ± S) ([3]; Paclitaxel 20 mg/kg, Q4Dx4, i.p., Day 28, mean ± standard error, in mm³ (unit assumed)): 528.88 ± 147.69
- tumor inhibitory effect ([3]; Paclitaxel 20 mg/kg, Compound A 2.5, 5, 10 mg/kg): weak tumor inhibitory effect

Structure (SMILES): O=[N+]([O-])c1ccc([C@H](OP(=O)(N2CC2)N2CC2)C(F)(F)F)cc1Oc1ccc(-c2ccc(F)cc2)c(F)c1 [B]
- IC50 (H460 cells): 8.77 nM
- IC50 (SNU354): 754 nM
- IC50 (SNU886): 378 nM
- IC50 (MHCC97H): 242 nM
- IC50 (huH-1): 258 nM
- IC50 (H460 cancer cells; [5]): 3.73 nM
- Fold (H460 cancer cells): 513.28

Structure (SMILES): CC(OP(=O)(N1CC1)N1CC1)c1ccc([N+](=O)[O-])c(Oc2cccc(C(=O)N(C)C)c2)c1 (stereo not drawn) [AST-2870]
- concentration in brain ([4]; 10 mg/kg i.p., after 30 minutes): lower than the lower limit of quantitation
- blood-brain barrier penetration ([4]; 10 mg/kg intraperitoneal injection): could not cross the blood-brain barrier
- AUCInf Ratio (Brain/Plasma) ([4]; 10 mg/kg intraperitoneal injection, Mean): 0.0227
- AUCInf [4, 8]: 16.5 ng·h/g
- AUClast [4, 8]: 16.3 ng·h/g
- Tmax [4, 8]: 4.8 min
- T½ [4, 8]: 4.48 min
- AUCInf [4, 9]: 725 ng·h/mL
- AUClast [4, 9]: 725 ng·h/mL
- Cmax [4, 9]: 4023 ng/mL
- T½ [4, 9]: 9 min
